Laboratory results reported in PMC8032764 (Scientific Reports, 2021).
Where two headings read alike, the source gives them in different places.

Key:
[1] = molecular target: T1, human α4β3γ2 (Homo sapiens, UniProt P18507+P48169); assay: [3H]-Ro 15-4513 competition binding; conditions: at > 3 µM; data not shown
T1 construct: expressed in transfected cells; host or cells: HEK293-EBNA, transient
Procedure: (§1) HEK293-EBNA cells adapted to grow in suspension were transiently transfected with the plasmids containing the desired GABAA receptor subunit cDNAs at α, β, γ, 1:1:2 ratio using XtremeGENE Q2 (Cat. No. 03045595001, Roche Applied Science, RAS, Rotkreuz, Switzerland) as previously described. GABAA α1β2γ2, α2β3γ2, α3β3γ2, α4β3γ2, α5β3γ2 and α6β3γ2 receptor subtypes were expressed in this system. 48 h post transfection, the cells were harvested and washed three times with cold PBS and frozen at − 80 °C.
(§2) IC50 values were derived from the inhibition curve and Ki values were calculated as described below.

[2] = molecular target: T2, human α6β3γ2 (Homo sapiens, UniProt P18507+Q16445); assay: [3H]-Ro 15-4513 competition binding; conditions: at > 3 µM; data not shown
T2 construct: expressed in transfected cells; host or cells: HEK293-EBNA, transient
Procedure: as §1, §2

[3] = system: T3, Adenosine A1; assay: Cerep binding; set-up: species or system human; conditions: 10 μM; [3H]DPCPX; hum. recomb. (CHO)
T3 construct: host or cells: CHO

[4] = system: T4, Adrenergic β1; assay: Cerep binding; set-up: species or system human; conditions: 10 μM; [3H](-)CGP 12177; hum. recomb. (HEK-293)
T4 construct: host or cells: HEK-293

[5] = system: T5, Muscarinic M2; assay: Cerep binding; set-up: species or system human; conditions: 10 μM; [3H]AF-DX 384; hum. recomb. (CHO)
T5 construct: host or cells: CHO

[6] = system: T6, Muscarinic M4; assay: Cerep binding; set-up: species or system human; conditions: 10 μM; [3H]4-DAMP; hum. recomb. (CHO)
T6 construct: host or cells: CHO

[7] = system: T7, Serotonin 5-HT1B; assay: Cerep binding; conditions: 10 μM; [125I]CYP; rat cerebral cortex
T7 construct: purchased Eurofins Cerep

[8] = system: T8, Serotonin 5-HT5a; assay: Cerep binding; set-up: species or system human; conditions: 10 μM; [3H]LSD; hum. recomb. (CHO)
T8 construct: purchased Eurofins Cerep

[9] = system: T9, Serotonin 5-HT6; assay: Cerep binding; set-up: species or system human; conditions: 10 μM; [3H]LSD; hum. recomb. (CHO)
T9 construct: purchased Eurofins Cerep

[10] = molecular target: T10, GABAA-α5 receptors (Rattus norvegicus, UniProt P18508+P19969); assay: In vivo [3H]-Ro 15-4513 binding with ex vivo autoradiography (receptor occupancy); conditions: hippocampus, Hill fit
T10 construct: from tissue; host or cells: rat brain (hippocampus), in vivo with ex vivo autoradiography
Procedure: Brains and blood were collected from each animal. Brains were divided in two halves along their sagittal axis and frozen in dry ice. […] Half of the brain was used for autoradiography, as described earlier. […] The percentage of receptor occupancy (y) was calculated from: y=1001-Sbasmisanil/Svehicle.
The curve was fitted to the experimental results using the Hill equation (Eq. (1) with Hill coefficient D = 1).

[11] = Plasma levels, PTZ test; type: in vivo, rat
Procedure: Following tonic convulsions, rats were immediately euthanized by decapitation. All other rats were euthanized by decapitation at the end of the 30 min observation period. Plasma samples were collected and frozen at − 80 °C for analysis of drug content.
(§3) The calibration range was from 1.0 to 5000 ng/mL. After protein precipitation with ethanol, the sample solution was injected onto a Gemini C18 trapping column (2 × 10 mm; Phenomenex, Torrance, CA, USA) and polar endogenous compounds and salts were rinsed off. Analytical separation was performed on an Atlantis T3 column (2.1 × 50 mm) (Waters, Milford, MA, USA), using methanol/water containing 0.1% formic acid as mobile phase. A drug analogue was used as an internal standard.

[12] = Pharmacokinetics, single oral dosing; type: in vivo, Cynomolgus macaque; conditions: cynomolgus monkey, plasma, 10 mg/kg oral, microsuspension, n = 3 male
Procedure: Concentrations were chosen to achieve the desired doses by administering 5 mL/kg to rats and 2.5 mL/kg to NHPs via oral gavage.
as §3

[13] = Plasma protein binding; type: in vitro ADME
Text: Free plasma concentrations were used to estimate receptor occupancy.

[14] = system: healthy male subjects; assay: Study WP25366 multiple-ascending dose, safety EEG and plasma exposure; type: in vivo, human
Procedure: 2) Study WP25366 Multiple-Ascending Dose (MAD) in Healthy Volunteers
Of the 32 healthy male subjects who were randomized to treatment, 24 subjects were […]
participants had several EEGs and several participants had sleep assessments with EEG that were also evaluated:
• Cohort 1: 80 mg (n dosed: 6)
• Cohort 2: 160 mg (n dosed: 6)
• Cohort 3: 370 mg (n dosed: 6)
• Cohort 4: 1000 mg (n dosed: 6)
EEG monitoring was implemented in this study starting at about 1 hour prior to dosing and then up to approximately 7 hours after dosing, on selected days during the dosing period. All sleep recordings were performed for approximately 8 h from 23.00 to 07.00. The objective of such monitoring was detection if any, of specific EEG patterns such as spikes, sharp waves, and spike-and-wave discharges that would be indicative of epileptiform changes or non - […]
The day and night EEG recordings were subject to expert safety review, with the objective of identifying any pro-convulsive signals. Following this safety review, EEG results were recorded either as normal, normal variant or abnormal variant. […]
of epileptogenic effects (e.g., generalized spike-wave discharges) in any subject in any dose group at any time points during the study. The review of the day and night EEG recordings […]
160 mg BID, 370 mg BID and 1000 mg BID, was safe and ha d no impact on brain electrical activity. Maximum plasma concentrations at Day 13 were 2120, 4110, 6040, and […]
3) Study WP29402 Drug-Drug Interaction (DDI) Itraconazole in Healthy Volunteers This was an open-label, three treatment, fixed sequence crossover study to investigate the […]
healthy male and female volunteers (age range 18-60 years; n: 12). As systemic basmisanil exposure was predicted to be higher than exposures achiev ed in previous clinical studies, regular EEG examinations were included and reviewed by a neurologist. Multiple oral doses […]
with the CYP3A inhibitor, itraconazole (200 m g OD).
Baseline EEG assessments were performed prior to the study (resting EEG eyes open/closed, intermittent photic stimulation, hyperventilation). On treatment days (1, 3, 5, 8) […]
hours and resting EEG eyes open/closed w ere performed. […]
administered with itraconazole.

Q: Which results are given for `Cc1onc(-c2ccc(F)cc2)c1COc1ccc(C(=O)N2CCS(=O)(=O)CC2)cn1` [basmisanil]?
A: binding [1]: no binding; binding [2]: no binding; % Inhibition [3]: 28%; % Inhibition [4]: 6%; % Inhibition [5]: 13%; % Inhibition [6]: -4%; % Inhibition [7]: 0%; % Inhibition [8]: 5%; % Inhibition [9]: 7%; EC50 ([10]; free plasma, read-out: free plasma concentration for half-maximal receptor occupancy (EC50)): 171 ± 16 nM; EC50 ([10]; total plasma, read-out: plasma level for half-maximal receptor occupancy (EC50) (converted)): 1220 nM; free plasma concentration ([11]; female rats, 30 mg/kg): 2452 nM; free plasma concentration ([11]; female rats, 100 mg/kg): 5079 nM; free plasma concentration ([11]; male rats, 100 mg/kg): 1622 nM; bioavailability [12]: 48%; Tmax ([12]; median, read-out: Tmax (range)): 1.5 h; AUC(0-t) ([12]; ± standard deviation): 27500 ng·h/mL; Cmax ([12]; ± standard deviation): 3650 ± 110 ng/mL; fraction unbound ([13]; human, plasma, primates, including humans): 0.055; free fraction ([13]; primates, including humans): 5.5%; fraction unbound ([13]; rat, rats): 0.14; Maximum plasma concentration at Day 13 ([14]; 80 mg BID): 2120 ng/mL; Maximum plasma concentration at Day 13 ([14]; 160 mg BID): 4110 ng/mL; Maximum plasma concentration at Day 13 ([14]; 370 mg BID): 6040 ng/mL; Maximum plasma concentration at Day 13 ([14]; 1000 mg BID): 8520 ng/mL; EEG assessments ([14]; 80, 160, 370 and 1000 mg BID): revealed no findings of clinical concern
